# Laboratory results taken from patent publication US7557066B2, “Use of sulfonylureas” (Bayer CropScience AG, priority 2004, dated 2009).
# Columns and labels:
# [1] = system: monocotyledonous and dicotyledonous weed plants; assay: Pre-emergence effect on weeds (greenhouse, visual scoring); format: in vivo, weed grasses and broad-leaved weeds; conditions: 100 g or less of active substance per hectare; against Sinapsis alba, Chrysanthemum segetum, Avena sativa, Stellaria media, Echinochloa crus-galli, Lolium multiflorum, Setaria viridis, Abutilon theophrasti, Amaranthus retroflexus, Brachiaria plantaginea, Solanum nigrum, Euphorbia heterophylla, Sorghum halepense, Panicum miliaceum; scored after 3 to 4 weeks
# Description: Seeds or rhizome pieces of monocotyledonous and dicotyledonous weed plants were placed in sandy loam soil in cardboard pots and covered with soil. The compounds of the formula (I) or their salts, formulated in the form of wettable powders or emulsion concentrates, were then applied to the surface of the soil cover in the form of aqueous suspensions or emulsions at an application rate of 600 to 800 l of water/ha (converted) in various dosages.
# After the treatment, the pots were placed in a greenhouse and kept under good growth conditions for the weeds. After the test plants had emerged, the damage to the plants or the negative effect on the emergence was scored visually after a test period of 3 to 4 weeks by comparison with untreated controls. As shown by the test results, the compounds tested have good herbicidal pre-emergence activity against a broad spectrum of weed grasses and broad-leaved weeds. […] Post-Emergence Effect on Weeds
# [2] = system: monocotyledonous and dicotyledonous weeds; assay: Post-emergence effect on weeds (greenhouse, visual scoring); format: in vivo, weed grasses and broad-leaved weeds; conditions: 100 g or less of active substance per hectare; against Sinapsis alba, Echinochloa crus-galli, Lolium multiflorum, Chrysanthemum segetum, Setaria viridis, Abutilon theophrasti, Amaranthus retroflexus, Panicum miliaceum, Brachiaria plantaginea, Solanum nigrum, Euphorbia heterophylla, Sorghum halepense, Avena sativa; scored after about 3 to 4 weeks
# Experimental: (§1) Seeds or rhizome pieces of monocotyledonous and dicotyledonous weeds were placed in a sandy loam soil in plastic pots, covered with soil and cultivated in a greenhouse under good growth conditions. Three weeks after sowing, the test plants were treated at the three-leaf stage. The compounds of the formula (I) or their salts, formulated as wettable powders or as emulsion concentrates, were sprayed, at various dosages, onto the green parts of the plants at an application rate of 600 to 800 l of water/ha (converted). After the test plants had remained in the greenhouse for about 3 to 4 weeks under optimum growth conditions, the effect of the preparations was scored visually by comparison with untreated controls. The tested compounds also have good herbicidal post-emergence activity against a broad spectrum of economically important weed grasses and broad-leaved weeds. […] Crop Plant Compatibility
# soybeans (Glycine max.) = assay: Crop plant compatibility (greenhouse, visual scoring); format: in vivo; conditions: for damage to crops of leguminous plants, such as soybeans: pre-emergence or post-emergence method, various dosages, visual scoring four to five weeks after application
# Experimental: In further greenhouse experiments, seeds of a substantial number of crop plants and weeds were placed into sandy loam soil and covered with soil. Some of the pots were treated immediately as described under Section 1, and the remaining pots were placed in a greenhouse until the plants had developed two to three true leaves and then sprayed with various dosages of the compounds of the formula (I) or salts thereof, as described in Section 2.
# CIRAR = assay: Inhibition of revegetation of perennial plants; format: in vivo; conditions: 600 g of a.i./ha; cut four weeks after application, scored after a further four weeks; 100% = total inhibition
# Description: (§2) […] Four weeks after the application, the above-ground parts of the plants were cut off. After a further four weeks, the inhibition of revegetation was scored in percent of the control, 100% corresponding to a total inhibition of revegetation.
# LOLPE = assay: Inhibition of revegetation of perennial plants; format: in vivo; conditions: 600 g of a.i./ha; cut four weeks after application, scored after a further four weeks; 100% = total inhibition
# Description: as §2
# Amaranthus retroflexus = assay: Post-emergence effect on weeds; format: in vivo; conditions: 30 g of active substance per hectare
# Experimental: as §1
# Brachiaria plantaginea = assay: Post-emergence effect on weeds; format: in vivo; conditions: 30 g of active substance per hectare
# Experimental: as §1
# Echinochloa crus-galli = assay: Post-emergence effect on weeds; format: in vivo; conditions: 30 g of active substance per hectare
# Experimental: as §1
# Setaria viridis = assay: Post-emergence effect on weeds; format: in vivo; conditions: 30 g of active substance per hectare
# Experimental: as §1
# Solanum nigrum = assay: Post-emergence effect on weeds; format: in vivo; conditions: 30 g of active substance per hectare
# Experimental: as §1
Compound,herbicidal action in the pre-emergence method [1],herbicidal action by the post-emergence method [2],"damage to crops of leguminous plants, such as soybeans (soybeans (Glycine max.))",further results
CCOc1cc(Cl)nc(NC(=O)NS(=O)(=O)c2ncccc2C2=NOCCO2)n1 [I-21],very good herbicidal action,very good herbicidal action,did not damage,
COc1cc(N(C)C)nc(NC(=O)NS(=O)(=O)c2ncccc2C2=NOCCO2)n1 [I-8],very good herbicidal action,very good herbicidal action,did not damage,
Cc1cc(Cl)nc(NC(=O)NS(=O)(=O)c2ncccc2C2=NOCCO2)n1 [I-29],very good herbicidal action,very good herbicidal action,did not damage,
Cc1cc(C)nc(NC(=O)NS(=O)(=O)c2ncccc2C2=NOCCO2)n1 [I-23],very good herbicidal action,very good herbicidal action,did not damage,
COc1cc(OC)nc(NC(=O)NS(=O)(=O)c2ncccc2C2=NOCCO2)n1 [I-11],very good herbicidal action,very good herbicidal action,did not damage,
COc1cc(Cl)nc(NC(=O)[N-]S(=O)(=O)c2ncccc2C2=NOCCO2)n1.[Na+] [I-10],very good herbicidal action,very good herbicidal action,did not damage,
COc1cc(C)nc(NC(=O)[N-]S(=O)(=O)c2ncccc2C2=NOCCO2)n1.[Na+] [I-3],very good herbicidal action,very good herbicidal action,did not damage,
COc1cc(OC)nc(NC(=O)[N-]S(=O)(=O)c2ncccc2C2=NOCCO2)n1.[Na+] [I-12],very good herbicidal action,very good herbicidal action,did not damage,
COc1nc(NC(=O)[N-]S(=O)(=O)c2ncccc2C2=NOCCO2)nc(N(C)C)n1.[Na+] [I-60],very good herbicidal action,very good herbicidal action,did not damage,
CCOc1cc(OC)nc(NC(=O)NS(=O)(=O)c2ncccc2C2=NOCCO2)n1 [I-1],very good herbicidal action,very good herbicidal action,did not damage,
CN(C)c1nc(NC(=O)NS(=O)(=O)c2ncccc2C2=NOCCO2)nc(OCC(F)(F)F)n1 [I-142],very good herbicidal action,very good herbicidal action,did not damage,
O=C(O)CNCP(=O)(O)O [Glyphosate],,,,"inhibition of revegetation, CIRAR (CIRAR): 25%; inhibition of revegetation, LOLPE (LOLPE): 35%"
COc1nc(NC(=O)NS(=O)(=O)c2ncccc2C2=NOCCO2)nc(OC)n1 [I-51],very good herbicidal action,very good herbicidal action,did not damage,
CCOc1cc(Cl)nc(NC(=O)[N-]S(=O)(=O)c2ncccc2C2=NOCCO2)n1.[Na+] [I-22],very good herbicidal action,very good herbicidal action,did not damage,
CCOc1cc(OCC)nc(NC(=O)[N-]S(=O)(=O)c2ncccc2C2=NOCCO2)n1.[Na+] [I-14],very good herbicidal action,very good herbicidal action,did not damage,
O=C(Nc1nc(Cl)cc(OCC(F)(F)F)n1)NS(=O)(=O)c1ncccc1C1=NOCCO1 [I-143],very good herbicidal action,very good herbicidal action,did not damage,
COc1cc(Cl)nc(NC(=O)NS(=O)(=O)c2ncccc2C2=NOCCO2)n1 [I-9],very good herbicidal action,very good herbicidal action,did not damage,herbicidal activity against Amaranthus retroflexus (Amaranthus retroflexus): 93%; herbicidal activity against Brachiaria plantaginea (Brachiaria plantaginea): 100%; herbicidal activity against Echinochloa crus-galli (Echinochloa crus-galli): 100%; herbicidal activity against Setaria viridis (Setaria viridis): 100%; herbicidal activity against Solarium nigrum (Solanum nigrum): 100%; damage to soybeans (Glycine max.) (soybeans (Glycine max.); 8 g of active substance per hectare): 0%
Cc1cc(Cl)nc(NC(=O)[N-]S(=O)(=O)c2ncccc2C2=NOCCO2)n1.[Na+] [I-30],very good herbicidal action,very good herbicidal action,did not damage,
O=C([N-]S(=O)(=O)c1ncccc1C1=NOCCO1)Nc1nc(Cl)cc(OCC(F)(F)F)n1.[Na+] [I-145],very good herbicidal action,very good herbicidal action,did not damage,
COc1nc(NC(=O)[N-]S(=O)(=O)c2ncccc2C2=NOCCO2)nc(OC)n1.[Na+] [I-52],very good herbicidal action,very good herbicidal action,did not damage,
CCOc1nc(Cl)nc(NC(=O)[N-]S(=O)(=O)c2ncccc2C2=NOCCO2)n1.[Na+] [I-70],very good herbicidal action,very good herbicidal action,did not damage,
